Test results reported in ChEMBL document CHEMBL6092222 (J Med Chem, 2024).
Converted amounts (≈) assume the structure as drawn.

Legend:
[1] = Prodrug conversion in Sprague-Dawley rat assessed as Cmax of 6-(cyclopropanecarboxamido)-4-((2-methoxy-3-(2-methyl-2H-tetrazol-5-yl)phenyl)amino)-N-(methyl-d3)nicotinamide metabolite at 25 mg/kg, po measured for 24 hrs by UPLC-MS/MS analysis; assay type: ADME, organism-based; conditions: in vivo
[2] = Prodrug conversion in Sprague-Dawley rat assessed as AUC of 6-(cyclopropanecarboxamido)-4-((2-methoxy-3-(2-methyl-2H-tetrazol-5-yl)phenyl)amino)-N-(methyl-d3)nicotinamide metabolite at 150 mg/kg, po measured for 24 hrs by UPLC-MS/MS analysis; assay type: ADME, organism-based; conditions: in vivo
[3] = Prodrug conversion in Sprague-Dawley rat assessed as Cmax of 6-(cyclopropanecarboxamido)-4-((2-methoxy-3-(2-methyl-2H-tetrazol-5-yl)phenyl)amino)-N-(methyl-d3)nicotinamide metabolite at 150 mg/kg, po measured for 24 hrs by UPLC-MS/MS analysis; assay type: ADME, organism-based; conditions: in vivo
[4] = Tmax in Sprague-Dawley rat at 25 mg/kg, po measured for 24 hrs by UPLC-MS/MS analysis; assay type: ADME, organism-based; conditions: in vivo
[5] = Prodrug conversion in Famotidine-pretreated Sprague-Dawley rat assessed as Cmax of 6-(cyclopropanecarboxamido)-4-((2-methoxy-3-(2-methyl-2H-tetrazol-5-yl)phenyl)amino)-N-(methyl-d3)nicotinamide metabolite at 10 mg/kg, po measured for 24 hrs by UPLC-MS/MS analysis; assay type: ADME, organism-based; conditions: in vivo
[6] = Chemical stability of compound in 0.1 M HCl at pH 1 at 37 degreeC assessed as half life measured for 24 hrs by reversed phase-HPLC analysis; assay type: physicochemical
[7] = Cmax in Sprague-Dawley rat at 25 mg/kg, po measured for 24 hrs by UPLC-MS/MS analysis; assay type: ADME, organism-based; conditions: in vivo
[8] = Prodrug conversion in Pentagastrine-pretreated Sprague-Dawley rat assessed as Cmax of 6-(cyclopropanecarboxamido)-4-((2-methoxy-3-(2-methyl-2H-tetrazol-5-yl)phenyl)amino)-N-(methyl-d3)nicotinamide metabolite at 10 mg/kg, po measured for 24 hrs by UPLC-MS/MS analysis; assay type: ADME, organism-based; conditions: in vivo
[9] = Prodrug conversion in Famotidine-pretreated Sprague-Dawley rat assessed as AUC (total) of 6-(cyclopropanecarboxamido)-4-((2-methoxy-3-(2-methyl-2H-tetrazol-5-yl)phenyl)amino)-N-(methyl-d3)nicotinamide metabolite at 10 mg/kg, po measured for 24 hrs by UPLC-MS/MS analysis; assay type: ADME, organism-based; conditions: in vivo
[10] = Cmax in Sprague-Dawley rat at 5 mg/kg, po measured for 24 hrs by UPLC-MS/MS analysis; assay type: ADME, organism-based; conditions: in vivo
[11] = Prodrug conversion in Sprague-Dawley rat assessed as AUC of 6-(cyclopropanecarboxamido)-4-((2-methoxy-3-(2-methyl-2H-tetrazol-5-yl)phenyl)amino)-N-(methyl-d3)nicotinamide metabolite at 5 mg/kg, po measured for 24 hrs by UPLC-MS/MS analysis; assay type: ADME, organism-based; conditions: in vivo
[12] = Chemical stability of compound in phosphate buffer at pH 6.5 at 37 degreeC assessed as half life measured for 24 hrs by reversed phase-HPLC analysis; assay type: physicochemical
[13] = target: Intestinal-type alkaline phosphatase 1 (Rattus norvegicus, UniProt P15693); assay: (§1) Prodrug conversion in tris buffer at pH 7.4 assessed as intestinal recombinant rat ALP-mediated 6-(cyclopropanecarboxamido)-4-((2-methoxy-3-(2-methyl-2H-tetrazol-5-yl)phenyl)amino)-N-(methyl-d3)nicotinamide metabolite formation by measuring half life of metabolite at 1 uM incubated for 30 mins by UPLC-MS/MS analysis; assay type: ADME; conditions: pH 7.4, 0.5 h
physchem [14] = conditions: aqueous buffer, pH 6.5
Description: Solubility of compound in aqueous buffer at pH 6.5 at 25 degreeC by reversed phase-HPLC analysis

[15] = Prodrug conversion in Sprague-Dawley rat assessed as Tmax of 6-(cyclopropanecarboxamido)-4-((2-methoxy-3-(2-methyl-2H-tetrazol-5-yl)phenyl)amino)-N-(methyl-d3)nicotinamide metabolite at 25 mg/kg, po measured for 24 hrs by UPLC-MS/MS analysis; assay type: ADME, organism-based; conditions: in vivo
[16] = Prodrug conversion in Pentagastrine-pretreated Sprague-Dawley rat assessed as Tmax of 6-(cyclopropanecarboxamido)-4-((2-methoxy-3-(2-methyl-2H-tetrazol-5-yl)phenyl)amino)-N-(methyl-d3)nicotinamide metabolite at 10 mg/kg, po measured for 24 hrs by UPLC-MS/MS analysis; assay type: ADME, organism-based; conditions: in vivo
[17] = Tmax in Sprague-Dawley rat at 5 mg/kg, po measured for 24 hrs by UPLC-MS/MS analysis; assay type: ADME, organism-based; conditions: in vivo
[18] = Prodrug conversion in Sprague-Dawley rat assessed as Tmax of 6-(cyclopropanecarboxamido)-4-((2-methoxy-3-(2-methyl-2H-tetrazol-5-yl)phenyl)amino)-N-(methyl-d3)nicotinamide metabolite at 150 mg/kg, po measured for 24 hrs by UPLC-MS/MS analysis; assay type: ADME, organism-based; conditions: in vivo
[19] = AUC in Sprague-Dawley rat at 25 mg/kg, po measured for 24 hrs by UPLC-MS/MS analysis; assay type: ADME, organism-based; conditions: in vivo
[20] = Prodrug conversion in Sprague-Dawley rat assessed as AUC of 6-(cyclopropanecarboxamido)-4-((2-methoxy-3-(2-methyl-2H-tetrazol-5-yl)phenyl)amino)-N-(methyl-d3)nicotinamide metabolite at 25 mg/kg, po measured for 24 hrs by UPLC-MS/MS analysis; assay type: ADME, organism-based; conditions: in vivo
[21] = AUC in Sprague-Dawley rat at 5 mg/kg, po measured for 24 hrs by UPLC-MS/MS analysis; assay type: ADME, organism-based; conditions: in vivo
[22] = Prodrug conversion in Famotidine-pretreated Sprague-Dawley rat assessed as Tmax of 6-(cyclopropanecarboxamido)-4-((2-methoxy-3-(2-methyl-2H-tetrazol-5-yl)phenyl)amino)-N-(methyl-d3)nicotinamide metabolite at 10 mg/kg, po measured for 24 hrs by UPLC-MS/MS analysis; assay type: ADME, organism-based; conditions: in vivo
[23] = Chemical stability of compound in acetate buffer at pH 4 at 37 degreeC assessed as half life measured for 24 hrs by reversed phase-HPLC analysis; assay type: physicochemical
[24] = Prodrug conversion in Sprague-Dawley rat assessed as Cmax of 6-(cyclopropanecarboxamido)-4-((2-methoxy-3-(2-methyl-2H-tetrazol-5-yl)phenyl)amino)-N-(methyl-d3)nicotinamide metabolite at 5 mg/kg, po measured for 24 hrs by UPLC-MS/MS analysis; assay type: ADME, organism-based; conditions: in vivo
physchem [25] = conditions: aqueous buffer, pH 1
Description: Solubility of compound in aqueous buffer at pH 1 at 25 degreeC by reversed phase-HPLC analysis

physchem [26] = conditions: aqueous buffer, pH 4
Description: Solubility of compound in aqueous buffer at pH 4 at 25 degreeC by reversed phase-HPLC analysis

[27] = target: Intestinal-type alkaline phosphatase (Homo sapiens, UniProt P09923); assay: as §1, with “human” for “rat”; assay type: ADME; conditions: pH 7.4, 0.5 h
[28] = Solubility of compound in FeSSIF at pH 5 by reversed-phase UPLC analysis; assay type: physicochemical
[29] = Prodrug conversion in Sprague-Dawley rat assessed as Tmax of 6-(cyclopropanecarboxamido)-4-((2-methoxy-3-(2-methyl-2H-tetrazol-5-yl)phenyl)amino)-N-(methyl-d3)nicotinamide metabolite at 5 mg/kg, po measured for 24 hrs by UPLC-MS/MS analysis; assay type: ADME, organism-based; conditions: in vivo
[30] = Prodrug conversion in Pentagastrine-pretreated Sprague-Dawley rat assessed as AUC (total) of 6-(cyclopropanecarboxamido)-4-((2-methoxy-3-(2-methyl-2H-tetrazol-5-yl)phenyl)amino)-N-(methyl-d3)nicotinamide metabolite at 10 mg/kg, po measured for 24 hrs by UPLC-MS/MS analysis; assay type: ADME, organism-based; conditions: in vivo
[31] = Solubility of compound in FaSSIF at pH 6.5 by reversed-phase UPLC analysis; assay type: physicochemical

Intestinal-type alkaline phosphatase, sequence (P09923 whole entry): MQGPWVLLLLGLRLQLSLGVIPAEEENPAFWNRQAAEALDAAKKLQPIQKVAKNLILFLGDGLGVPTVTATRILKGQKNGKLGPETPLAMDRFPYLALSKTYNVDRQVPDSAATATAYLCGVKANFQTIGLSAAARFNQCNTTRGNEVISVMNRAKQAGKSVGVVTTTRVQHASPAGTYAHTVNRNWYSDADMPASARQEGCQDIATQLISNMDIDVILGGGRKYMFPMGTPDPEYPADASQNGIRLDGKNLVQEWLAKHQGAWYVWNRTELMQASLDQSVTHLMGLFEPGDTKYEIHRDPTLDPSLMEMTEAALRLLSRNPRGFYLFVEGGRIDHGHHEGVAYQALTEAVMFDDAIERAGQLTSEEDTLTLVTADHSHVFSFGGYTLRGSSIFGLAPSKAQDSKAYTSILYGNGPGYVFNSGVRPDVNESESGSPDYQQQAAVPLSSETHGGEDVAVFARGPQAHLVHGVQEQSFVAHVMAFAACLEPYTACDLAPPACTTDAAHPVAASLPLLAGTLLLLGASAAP
Intestinal-type alkaline phosphatase 1, sequence (P15693 whole entry): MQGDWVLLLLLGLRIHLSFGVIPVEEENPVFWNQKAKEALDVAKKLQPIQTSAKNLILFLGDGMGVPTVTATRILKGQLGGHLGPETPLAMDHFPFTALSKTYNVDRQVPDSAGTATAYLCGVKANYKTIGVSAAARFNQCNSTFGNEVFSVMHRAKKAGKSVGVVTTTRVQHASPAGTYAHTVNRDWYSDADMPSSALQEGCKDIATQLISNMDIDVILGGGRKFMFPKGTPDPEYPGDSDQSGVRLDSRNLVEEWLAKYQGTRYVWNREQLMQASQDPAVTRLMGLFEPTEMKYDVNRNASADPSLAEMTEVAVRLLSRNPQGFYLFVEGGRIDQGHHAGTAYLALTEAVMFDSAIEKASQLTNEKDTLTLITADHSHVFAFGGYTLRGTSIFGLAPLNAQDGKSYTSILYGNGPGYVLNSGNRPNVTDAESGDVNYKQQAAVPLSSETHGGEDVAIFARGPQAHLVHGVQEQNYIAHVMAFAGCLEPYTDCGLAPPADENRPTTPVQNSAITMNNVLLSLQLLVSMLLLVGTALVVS

For `[2H]C([2H])([2H])NC(=O)c1cn(COP(=O)(O)O)/c(=N/C(=O)C2CC2)cc1Nc1cccc(-c2nnn(C)n2)c1OC`, the Cmax [1] was 13 µM, the AUC [2] was 804.3 µM·h and the Cmax [3] was 58.2 µM. The Tmax [4] was “Below_limit_of_detection”, the Cmax [5] was 12.4 µM and the half-life [6] was over 500 h. The Cmax [7] was “Below_limit_of_detection”, the Cmax [8] was 11.4 µM and the AUC [9] was 69 µM·h. The Cmax [10] was “Below_limit_of_detection”, the AUC [11] was 19.2 µM·h and the half-life [12] was 67.1 h. The t1/2 [13] was under 5 min, the solubility (physchem [14]) was 660 µg/mL (≈ 1230 µM) and the Tmax [15] was 3 h. The Tmax [16] was 1 h, the Tmax [17] was “Below_limit_of_detection” and the Tmax [18] was 3 h. For the same molecule, the AUC [19] was “Below_limit_of_detection”, the AUC [20] was 96.9 µM·h and the AUC [21] was “Below_limit_of_detection”. The Tmax [22] was 1.5 h, the half-life [23] was 286 h and the Cmax [24] was 4.91 µM. It also gave a solubility (physchem [25]) of 16 µg/mL (≈ 29.9 µM), a solubility (physchem [26]) of 27 µg/mL (≈ 50.4 µM) and a t1/2 [27] of under 5 min. It also gave a solubility [28] of 100 µg/mL (≈ 187 µM), a Tmax [29] of 0.5 h and an AUC [30] of 63 µM·h. For the same molecule, the solubility [31] was 1630 µg/mL (≈ 3040 µM).
